Experimental data from patent US10709697B2, “Bis-amines, compositions, and uses related to CXCR4 inhibition” (Emory University, priority 2015, dated 2020).
Each block holds one compound with its values, some of them ahead of it.

How the values were obtained:
[1] = target: T1, CXCR4 (Homo sapiens, UniProt P61073); test: Primary binding affinity screening (competition with biotinylated TN14003)
T1 construct: endogenous in cells; host or cells: MDA-MB-231
Description: The compounds were initially screened with a binding affinity assay. […] MDA-MB-231 cells were pre-incubated with compounds at concentrations of 1, 10, 100, and 1000 nM, then incubated with biotinylated TN14003 and streptavidin-conjugated rhodamine to determine the binding efficiency of the new compounds to the CXCL12 binding domain of CXCR4. […] Thus, this screening is a semi-quantitative, first pass measure of the level of activity.
For binding affinity assay, 2×10^4 MDA-MB-231 cells in 300 μL of cell culture medium were seeded in an 8-well slide chamber 2 days before the experiments were conducted. Various concentrations of different compounds (1, 10, 100, or 1000 nM) were added to the separate wells and incubated for 10 min at room temperature, and then the cells were fixed in 4% ice-cold paraformaldehyde. The cells were rehydrated in phosphate-buffered saline (PBS). The slides were subsequently incubated for 30 min at room temperature with 0.05 μg/mL biotinylated TN14003, washed three times with PBS, and incubated in streptavidin-rhodamine (1:150 dilution; Jackson ImmunoResearch Laboratories, West Grove, Pa.) for 30 min at room temperature. Finally, the slides were washed with PBS and mounted in an anti-fade mounting solution (Molecular Probes, Eugene, Oreg.), and the samples were analyzed on a Nikon Eclipse E800 microscope.

[2] = tested on: CXCR4/CXCL12-mediated chemotaxis and invasion; test: Matrigel invasion assay; type: cell-based; details: for inhibition at 0.1 µM: single concentration of 100 nM, CXCL12 as chemoattractant, FIG. 2, read-out: inhibitory rate, Matrigel invasion
Text: To model in vitro metastasis, a Matrigel® invasion assay was used as the functional assay. […] A layer of Matrigel® matrix-coated permeable support (8 μm pore diameter) separates the upper and lower chambers.

[3] = tested on: carrageenan-induced mouse paw edema; test: In vivo suppression against carrageenan-induced paw edema; details: for inflammation-suppression percentage (paw edema): 10 mg/kg i.p. daily, female C57BL/6J mice, 74 h after carrageenan challenge
Description: CXCR4 plays a role in the recruitment of inflammatory cells to sites of inflammation. Blocking CXCR4 is a therapeutic strategy in inflammatory diseases. A carrageenan-induced mouse paw edema model as an efficient model to evaluate the in vivo CXCR4 antagonistic activity for CXCR4 inhibitors.
Acute inflammation was induced by subcutaneous injection of 50 μL of λ-carrageenan (1% w/v in saline) into one of the hind paws of the female C57BL/6J mice (Jackson Laboratories); the other hind paw was injected with 50 μL of saline, which was used as a non-inflammation control. The selected compounds were dissolved in 10% DMSO and 90% of 45% (2-hydroxypropyl)-β-cyclodextrin (CD) in PBS. In the treatment group, compounds IIg, IIk, IIm and IIn were administered intraperitoneally (i.p.) at 10 mg/kg daily, while TN14003 was administered at 300 μg/kg, i.p., daily, 30 min following carrageenan challenge. The rationale for using 300 μg/kg for TN14003 was that this concentration was reported to be the minimum concentration needed to achieve the maximum efficacy of this compound in a […] metastasis animal model. See Yoon et al. CXC chemokine receptor-4 antagonist blocks both growth of primary tumor and metastasis of head and neck cancer in xenograft mouse models. Cancer Res., 67 (2007), pp. 7518-7524. Control animals received corresponding i.p. injections of the vehicle. The animals were sacrificed 74 h after carrageenan challenge and 2 h after the last injection of the selected compounds. The final paws were photographed and measured for thickness from the “palm” to the back of the paw with a caliper. These were compared to the volume of carrageenan-untreated contralateral paw to obtain the edema volume; the volume of the contralateral paw was subtracted from the volume of the carrageenan injected paw to obtain the edema volume. The inflammation-suppression percentage was calculated by comparing the drug-treated group to the control group.

[4] = tested on: carrageenan-induced mouse paw edema; test: as above; details: 10 mg/kg i.p. daily; paw tissue histology
[5] = effective concentration = lowest concentration with significant reduction of rhodamine fluorescence, MDA-MB-231 cells, tested at 1, 10, 100, 1000 nM

T1 sequence (P61073 whole entry): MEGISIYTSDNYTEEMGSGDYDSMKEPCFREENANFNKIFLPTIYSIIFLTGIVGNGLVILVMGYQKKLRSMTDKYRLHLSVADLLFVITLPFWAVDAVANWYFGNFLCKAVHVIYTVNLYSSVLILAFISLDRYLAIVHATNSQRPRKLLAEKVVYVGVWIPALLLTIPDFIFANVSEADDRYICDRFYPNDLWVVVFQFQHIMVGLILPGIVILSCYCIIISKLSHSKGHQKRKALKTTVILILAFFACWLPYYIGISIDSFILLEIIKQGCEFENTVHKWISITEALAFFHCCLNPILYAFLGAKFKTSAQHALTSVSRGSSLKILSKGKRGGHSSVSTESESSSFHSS

melting point: 113 to 115 °C | EC [1, 5]: >1000 nM
Compound: c1cc(CN2CCOCC2)ccc1CN1CCOCC1 [Ic, 1,4-Bis(morpholinomethyl)benzene]

melting point: 77 to 79 °C | EC [1, 5]: 1000 nM
Compound: CN(Cc1ccc(CN(C)c2ccccc2)cc1)c1ccccc1 [Id, N,N′-(1,4-Phenylenebis(methylene))bis(N-methylaniline)]

melting point: 78 to 80 °C | EC [1, 5]: 100 nM
Compound: CN(Cc1ccc(CN(C)c2ccc(F)cc2)cc1)c1ccc(F)cc1 [Ie, N,N′-(1,4-phenylenebis(methylene))bis(4-fluoro-N-methylaniline)]
inhibition at 0.1 µM [2]: 66.4%

melting point: 80 to 82 °C | EC [1, 5]: >1000 nM
Compound: CN(Cc1ccc(F)cc1)Cc1ccc(CN(C)Cc2ccc(F)cc2)cc1 [Ij, N,N′-(1,4-Phenylenebis(methylene))bis(1-(4-fluorophenyl)-N-methylmethanamine)]

EC ([1]; Table 3): 10 nM
Compound: c1ccc(NCc2ccc(CNc3ccccn3)cc2)nc1 [WZ811, reference compound]
Invasion ([2]; Table 3, concentration used 100 nM): 90% | Carageenan ([3]; Table 3, mice dosed 10 mg of compound per kg): 40%

Second part, the compound before the results:

Compound: CN(Cc1cccc(CN(C)c2ccccc2)n1)c1ccccc1 [IId, N,N′-(Pyridine-2,6-diylbis(methylene))bis(N-methylaniline)]
melting point: 91 to 93 °C | EC [1, 5]: 1000 nM

Compound: COc1cccc(CN(C)Cc2cccc(CN(C)Cc3cccc(OC)c3)n2)c1 [IIk, N,N′-(Pyridine-2,6-diylbis(methylene))bis(1-(3-methoxyphenyl)-N-methylmethanamine)]
inhibition at 0.1 µM [2]: 76.7% | inflammation-suppression percentage (paw edema) [3]: 31.0% | EC [1, 5]: 10 nM

Compound: CN(Cc1ccccn1)Cc1cccc(CN(C)Cc2ccccn2)n1 [IIn, N,N′-(Pyridine-2,6-diylbis(methylene))bis(N-methyl-1-(pyridin-2-yl)methanamine)]
inhibition at 0.1 µM [2]: 72.6% | inflammation-suppression percentage (paw edema) [3]: 50% | EC [1, 5]: 10 nM | mouse paw inflammation and damage in histological assay [4]: significantly attenuated

Compound: c1cc(CN2CCCCC2)ccc1CN1CCCCC1 [Ib, 1,4-Bis(piperidin-1-ylmethyl)benzene]
inhibition at 0.1 µM [2]: < 50% | melting point: 84 to 86 °C | EC [1, 5]: 10 nM
